The values that follow come from patent US10316021B2, “Heteroarylphenoxy benzamide kappa opioid ligands” (Pfizer Inc., priority 2016, dated 2019).

Entries after “also recorded” stand apart in the source; their conditions may differ. Read-outs that look alike come from different tables or passages of the source.

The target of series [1] is T1, human mu opioid receptor (hMOR) (Homo sapiens, UniProt P35372).
T1 construct: expressed in transfected cells; host or cells: CHO cells
As to the kind of experiment: Mu radioligand binding assay ([3H]diprenorphine, CHO cell membranes). The protocol:
(§1) Kappa and Mu Radioligand Binding Assay:
Binding assays on membranes from CHO cells expressing human kappa or mu opioid receptors were performed according to standard procedures. Frozen cell paste was homogenized in 50 mM Tris HCl buffer (pH 7.4 @ 4 degrees C.) containing 2.0 mM MgCl2 using a Polytron and spun in a centrifuge at 40,000 g for ten minutes. The final pellet was resuspended in assay buffer (50 mM Tris HCl buffer, pH 7.4, containing 1 mM EDTA, 5 mM MgCl2). Incubations were initiated by the addition of membranes to 96-well plates containing test drugs and [^3H]diprenorphine (0.6 nM final concentration for kappa opioid receptor and 0.5 nM final concentration for mu) in a final volume of 250 μl. Non-specific binding was determined by radioligand binding in the presence of a saturating concentration of naltrexone (10 μM). After a one hour incubation period at room temperature, assay samples were rapidly filtered through PEI coated, GF/B fired Unifilter plates (PerkinElmer) and rinsed with ice-cold 50 mM Tris buffer (pH 7.4). Membrane bound [^3H]diprenorphine levels were determined by liquid scintillation counting of the filterplates in Ecolume scintillation fluid. […] Ki values were calculated according to the Cheng Prusoff equation, Ki=IC50/(1+(L/Kd)), where L is the concentration of the radioligand used in the experiment and the Kd value is the dissociation constant for the radioligand (determined previously by saturation analysis).

Series [2] has as its target T2, kappa opioid receptor (Mus musculus, UniProt P33534).
T2 construct: from tissue; host or cells: brain of adult male C57BL/6J mice (in vivo)
Briefly: In vivo receptor occupancy (displacement of [3H]GR103545 in brain). As to conditions: subcutaneous dosing. An excerpt:
(§2) Adult male C576BL/J6 mice from Jackson Labs (Bar Harbor, Me.) were group housed on individually-vented cage racks, in environmentally-controlled animal quarters (light/dark-6:00 am/6:[…]) for a minimum of 7 days prior to use. For progressive ratio studies, mice were food-restricted to 80-85% of their body weight before testing began. All animal procedures were approved by the Pfizer Inc. IACUC and conducted in accordance with the NIH Guide for the Care and Use of Laboratory Animals.
In Vivo Receptor Occupancy
In vivo receptor occupancy was assessed in adult male C57BL6/J mice. Mice were administered increasing doses (0.001-32 mg/kg s.c.) 30 min prior to administration of the kappa opioid receptor ligand, [^3H]GR103545 (100 μCi/kg, intraorbital). Animals were euthanized 10 min later using cervical dislocation and the brains dissected. One hemisphere was stored at −40° C. for subsequent measurement of compound concentration, the other was homogenized in chilled Tris-HCl buffer (50 mM, pH 7.4; 1:10 w/v) for twenty seconds. Samples of brain homogenate were filtered through 0.3 to 0.5% PEI-soaked GF/B filters, and the filters washed twice with chilled buffer before radioactivity was counted overnight using a scintillation counter. Binding of the ligand in cerebellum was used to determine non-specific binding.

In series [3] the target is T3, human kappa opioid receptor (hKOR) (Homo sapiens, UniProt P41145).
T3 construct: expressed in transfected cells; host or cells: CHO cells
T3 sequence (P41145 whole entry): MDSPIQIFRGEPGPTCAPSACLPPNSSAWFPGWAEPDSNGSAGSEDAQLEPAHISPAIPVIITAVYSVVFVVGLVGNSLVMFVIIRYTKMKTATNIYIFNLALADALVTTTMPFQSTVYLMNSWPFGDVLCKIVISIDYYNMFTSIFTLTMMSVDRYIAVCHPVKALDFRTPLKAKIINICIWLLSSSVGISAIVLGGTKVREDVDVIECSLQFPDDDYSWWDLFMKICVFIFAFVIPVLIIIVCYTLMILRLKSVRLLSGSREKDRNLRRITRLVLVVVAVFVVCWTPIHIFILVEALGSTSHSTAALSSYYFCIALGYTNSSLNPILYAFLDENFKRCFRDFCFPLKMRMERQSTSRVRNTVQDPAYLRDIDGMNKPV
Briefly: Kappa radioligand binding assay ([3H]diprenorphine, CHO cell membranes). The note with it: for Selectivity hMOR/hKOR: selectivity ratio calculated by dividing the hMOR Ki by the hKOR Ki. How it is done:
as §1
Binding assays on membranes from CHO cells expressing human kappa or mu opioid receptors were performed according to standard procedures. Frozen cell paste was homogenized in 50 mM Tris HCl buffer (pH 7.4 @ 4 degrees C.) containing 2.0 mM MgCl2 using a Polytron and spun in a centrifuge at 40,000 g for ten minutes. The final pellet was resuspended in assay buffer (50 mM Tris HCl buffer, pH 7.4, containing 1 mM EDTA, 5 mM MgCl2). Incubations were initiated by the addition of membranes to 96-well plates containing test drugs and [^3H]diprenorphine (0.6 nM final concentration for kappa opioid receptor and 0.5 nM final concentration for mu) in a final volume of 250 μl. Non-specific binding was determined by radioligand binding in the presence of a saturating concentration of naltrexone (10 μM). After a one hour incubation period at room temperature, assay samples were rapidly filtered through PEI coated, GF/B fired Unifilter plates (PerkinElmer) and rinsed with ice-cold 50 mM Tris buffer (pH 7.4). Membrane bound [^3H]diprenorphine levels were determined by liquid scintillation counting of the filterplates in Ecolume scintillation fluid. The IC50 value (concentration at which 50% inhibition of specific binding occurs) was calculated using a logistic 4 parameter fit model of the concentration-response data. Ki values were calculated according to the Cheng Prusoff equation, Ki=IC50/(1+(L/Kd)), where L is the concentration of the radioligand used in the experiment and the Kd value is the dissociation constant for the radioligand (determined previously by saturation analysis).

Series [4] deals with T2, kappa opioid receptor. As to the kind of experiment: Progressive ratio responding (reversal of spiradoline-induced deficit in motivation). It counts as in vivo. The note with it: co-administered with spiradoline, receptor occupancy measured in a separate group of animals.
Description: as §2
Progressive Ratio Responding:
Motivation and food-reinforced operant behavior were assessed in the progressive ratio assay. Adult male C576BL/J6 mice were food-restricted to 80-85% of their body weight over a period of one week and kept in their home cages. Mice were trained to nose-poke for a food reward. […] Mice were assessed in a 60 minute session, where the number of rewards obtained was used as a surrogate of the level of motivation. Once mice had reached a stable level of responding, mice were dosed with the kappa opioid receptor agonist, spiradoline (3.2 mg/kg s.c.), to induce a deficit in motivation. Mice were co-administered increasing doses of the kappa opioid receptor antagonists (0.0032-3.2 mg/kg s.c.) to assess their ability to antagonize the spiradoline-induced deficit.

For another series, the system named is major CYP450 isozymes. Briefly: CYP450 DDI cocktail assay (reversible inhibition, all isozymes together). As to conditions: CYP450 DDI cocktail assay, isozymes inhibited in brackets. In kind it is in vitro ADME, human. The protocol:
Multi-Point Cocktail DDI IC50 Assay Conditions:
Standard marker activity substrates were incubated with pooled human liver microsomes (HL-MIX-102) in the presence of NADPH (1.2 mM) in 100 mM KH2PO4, pH 7.4 containing 3.3 mM MgCl2 at 37° C. The incubation volume was 0.1 mL, utilizing a 384-well plate format. The microsomal protein concentrations (0.1 mg/mL) and P450 concentration (0.035 μM) was used for each probe substrate at the following concentrations [tacrine (1A2) 2 uM; diclofenac (2C9) 5 μM; dextromethorphan (2D6) 5 μM; midazolam (3A4) 2 μM; taxol (2C8) 5 μM; S-mephenytoin (2C19) 40 μM]. Substrate concentrations were near Km values that had been previously determined and incubation times were selected based on determinations of reaction velocity linearity. Each test compound/prototypical inhibitors was tested at a concentration range of 0-30 μM in triplicate, in final vehicle solvent concentrations of 0.9% acetonitrile and 0.1% DMSO. Incubations were initiated with the addition of NADPH. At the end of the incubation period, termination solvent containing internal standard was added, the terminated incubation mixture was centrifuged to precipitate microsomal protein. Samples were directly injected on an HPLC-MS/MS system. A Biomek FX workstation was used for liquid handling and sample incubation.
Reversible CYP450 inhibitory potential for each compound was assessed using the CYP450 DDI cocktail assay, measuring the inhibition of the metabolism of a known probe substrate of each of the major CYP isozymes at 3 μM concentration.

Series [5] can be described thus: In vitro intrinsic clearance in human liver microsomes. In kind it is in vitro ADME. How it is done: Determination of In Vitro Intrinsic Clearance in Human Liver Microsomes:
Compounds were prepared as solutions in methanol. The final concentration of methanol in the incubation media was 0.2% (v/v). […] The total incubation volume was 1 mL. The reaction mixture was pre-warmed at 37° C. for 2 min before adding NADPH (1.2 mM). Aliquots (75 μL) of the reaction mixture at 0, 5, 10, 15, and 30 min were added to acetonitrile (200 μL) containing internal standard (terfenadine)(0.05 μg/mL), and the samples were centrifuged at 2500 g for 5 min prior to liquid chromatography/tandem mass spectrometry (LC/MS-MS) analysis of each compound using multiple reaction monitoring (MRM). For control experiments, NADPH was omitted from these incubations.
The microsomal half-life (t1/2) was obtained from a log-linear plot of the substrate depletion vs incubation time and was scaled to hepatic intrinsic clearance (CLint) using the following equation, in which the term t1/2 refers to the in vitro half-life: […]

[6] abbreviates: Table 19, geometric mean of 2-6 determinations unless otherwise indicated (Example 3: >=7), read-out: hMOR binding assay Ki.
[7] abbreviates: Table 20, radioligand binding, read-out: hMOR binding assay Ki.
Where [8] appears, read: Table 19, geometric mean of 2-6 determinations unless otherwise indicated (Example 3: >=7), read-out: hKOR binding assay Ki.
Where [9] appears, read: Table 20, radioligand binding, read-out: hKOR binding assay Ki.
Setting [10] is: radioligand binding, [3H]diprenorphine, read-out: hMOR Ki.
The mark [11] stands for this setting: radioligand binding, [3H]diprenorphine, read-out: hKOR Ki.

T2 sequence (P33534 whole entry): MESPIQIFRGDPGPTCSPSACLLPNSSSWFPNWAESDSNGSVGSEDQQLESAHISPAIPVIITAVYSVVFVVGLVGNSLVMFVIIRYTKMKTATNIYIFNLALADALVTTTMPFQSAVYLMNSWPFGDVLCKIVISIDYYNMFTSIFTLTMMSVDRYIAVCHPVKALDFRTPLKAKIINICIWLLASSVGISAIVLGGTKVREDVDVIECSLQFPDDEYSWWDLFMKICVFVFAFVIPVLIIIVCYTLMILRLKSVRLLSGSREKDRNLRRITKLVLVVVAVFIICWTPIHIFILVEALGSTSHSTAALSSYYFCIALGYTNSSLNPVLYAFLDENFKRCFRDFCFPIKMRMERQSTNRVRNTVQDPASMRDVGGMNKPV
T1 sequence (P35372 whole entry): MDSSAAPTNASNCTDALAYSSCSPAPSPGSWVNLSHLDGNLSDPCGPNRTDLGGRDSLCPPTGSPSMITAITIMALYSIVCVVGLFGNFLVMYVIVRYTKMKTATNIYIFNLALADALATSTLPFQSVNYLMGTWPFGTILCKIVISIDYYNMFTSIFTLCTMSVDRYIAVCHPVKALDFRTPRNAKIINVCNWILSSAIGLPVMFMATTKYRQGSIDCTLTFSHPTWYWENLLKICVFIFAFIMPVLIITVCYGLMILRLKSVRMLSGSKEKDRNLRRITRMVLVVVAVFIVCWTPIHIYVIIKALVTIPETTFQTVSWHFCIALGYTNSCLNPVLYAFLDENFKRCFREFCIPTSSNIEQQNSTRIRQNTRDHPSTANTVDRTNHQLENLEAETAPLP

Take `Cc1cc([C@@H]2CCCN2Cc2ccc(Oc3ccc(C(N)=O)cc3F)cc2)n(C)n1` [Example 45, 4-(4-{[(2S)-2-(1,3-dimethyl-1H-pyrazol-5-yl)pyrrolidin-1-yl]methyl}phenoxy)-3-fluorobenzamide]: the Ki was 108 nM in series [1] (setting [6]), 108 nM in series [1] (setting [7]), 1.7 nM in series [3] (setting [8]) and 1.7 nM in series [3] (setting [9]). The “displacement of KOR agonist radioligand binding in the brain, in words” value at kappa opioid receptor [2] is “displaced KOR agonist radioligand ([^3H]GR103545) binding in the brain in an exposure-dependent manner”. Also, the half-maximal inhibitory concentration (IC50) at kappa opioid receptor [2] (displacement of [3H]GR103545, unbound brain concentration, read-out: Mouse KOR IVRO unbound brain IC50) was determined as 0.25 nM. The “KOR potency, in words” value in series [3] was “excellent potency”. Also, the “selectivity for KOR over MOR, in words” value in series [3] was “excellent potency and selectivity over MOR; also recorded: more selective than the phenyl examples, Comparators A and B”. In series [3], the “Selectivity hMOR/hKOR” value was 64. For the same compound, the “% KOR IVRO to achieve 50% PR reversal” value at kappa opioid receptor [4] came out at 85%.

On to `Cc1cc(C2CCCN2Cc2ccc(Oc3ccc(C(N)=O)cc3F)cc2)on1` (stereo not drawn) [Example 42], for which the inhibition constant Ki in series [1] (setting [6]) worked out at 318 nM; in series [1] (setting [7]), 318 nM; in series [3] (setting [8]) it was 54.7 nM; in series [3] (setting [9]) it was 54.7 nM. The “KOR potency, in words” value in series [3] is “low KOR potency”. Besides, the “Selectivity hMOR/hKOR” value in series [3] is 5.8.

Take `COc1cc(C2CCCN2Cc2ccc(Oc3ccc(C(N)=O)cc3)cc2)n(C)n1` (single isomer, unassigned) [Example 46, 4-(4-{[2-(3-methoxy-1-methyl-1H-pyrazol-5-yl)pyrrolidin-1-yl]methyl}phenoxy)benzamide]: the Ki worked out at 25 nM in series [1] (setting [6]), 25 nM in series [1] (setting [7]), 0.657 nM in series [3] (setting [8]) and 0.657 nM in series [3] (setting [9]). In series [3], the “Selectivity hMOR/hKOR” value is 38. The “>25% reversible inhibition of CYP activity at 3 μM (CYP)” value with major CYP450 isozymes was “no”. The “hepatic / metabolic clearance in human liver microsomes, in words” value in series [5] is recorded as “higher metabolic clearance”. For the same compound, in series [5] (human, pH 7.4, human liver microsomal intrinsic clearance, read-out: HLM CLint), the CLint scaled at 2 μM is 105 mL/min/kg.

`Cc1nn(C)cc1C1CCCN1Cc1ccc(Oc2ccc(C(N)=O)cc2)c(F)c1` (single isomer, unassigned; (+)) [Example 2, (+)-4-(4-{[2-(1,3-Dimethyl-1H-pyrazol-4-yl)pyrrolidin-1-yl]methyl}-2-fluorophenoxy)benzamide]: the inhibition constant (Ki) in series [1] (setting [6]) was 27.8 nM; in series [3] (setting [8]), 3.95 nM.

In the case of `Cc1nn(C)cc1C1CCCN1Cc1ccc(Oc2ccc(C(N)=O)cc2)c(F)c1` (single isomer, unassigned; (-)) [Example 3, (−)-4-(4-{[2-(1,3-Dimethyl-1H-pyrazol-4-yl)pyrrolidin-1-yl]methyl}-2-fluorophenoxy)benzamide], the Ki in series [1] (setting [6]) was found to be 16.9 nM; in series [3] (setting [8]) it was 0.461 nM.

With `COc1nn(C)cc1C1COCCN1Cc1ccc(Oc2ccc(C(N)=O)cc2)c(F)c1` (single isomer, unassigned) [enantiomer of Example 22, 4-(2-fluoro-4-{[3-(3-methoxy-1-methyl-1H-pyrazol-4-yl)morpholin-4-yl]methyl}phenoxy)benzamide], the Ki in series [1] (setting [10]) was over 564 nM; in series [3] (setting [11]), 263 nM.

Turning to `Cc1c(C2CCCN2Cc2ccc(Oc3ccc(C(N)=O)cc3F)cc2)cnn1C` (single isomer, unassigned) [enantiomer of Example 35, 4-(4-{[2-(1,5-dimethyl-1H-pyrazol-4-yl)pyrrolidin-1-yl]methyl}phenoxy)-3-fluorobenzamide], the Ki in series [1] (setting [10]) worked out at 245 nM; in series [3] (setting [11]), 92.8 nM.

For `COc1nn(C)cc1C1CCCN1Cc1ccc(Oc2ccc(C(N)=O)cc2)c(F)c1` (single isomer, unassigned) [Example 32, 4-(2-fluoro-4-{[2-(3-methoxy-1-methyl-1H-pyrazol-4-yl)pyrrolidin-1-yl]methyl}phenoxy)benzamide], the Ki in series [1] (setting [6]) was determined as 112 nM; in series [3] (setting [8]) it was 2.47 nM.

Take `COc1nn(C)cc1C1CC(F)CN1Cc1ccc(Oc2ccc(C(N)=O)cc2)cc1` (stereo not drawn) [isomer of Example 24]: the Ki in series [1] (setting [10]) amounted to 1210 nM; in series [3] (setting [11]), 36.3 nM.

On to `Cc1cnn(C)c1C1CCCN1Cc1ccc(Oc2ccc(C(N)=O)cc2F)cc1` (stereo not drawn) [Example 43], for which the Ki in series [1] (setting [6]) turned out to be 56.2 nM; in series [1] (setting [7]), 56.2 nM; in series [3] (setting [8]), 16.8 nM; in series [3] (setting [9]) it was 16.8 nM. Further, the “selectivity for KOR over MOR, in words” value in series [3] is listed as “unacceptably lower levels of selectivity (MOR/KOR)”. In addition, the “Selectivity hMOR/hKOR” value in series [3] is reported as 3.
